Results on 50 compounds are retold here after patent US12240854B2, “TRAF 6 inhibitors” (Helmholtz Zentrum München - Deutsches Forschungszentrum für …, priority 2018, dated 2025).

“Also recorded” adds a separate entry of the source.

In the first assay the target is T1, TRAF6WTStrepII-Ubc13FH interaction (Homo sapiens, UniProt Q9Y4K3).
T1 construct: RING-Zincfinger1 (RZ1) domain (residues 50-159) of human TRAF6 wildtype; made in house; host or cells: E. coli BL21 codon plus RIPL
T1 sequence (Q9Y4K3 with tags, fused parts or gaps): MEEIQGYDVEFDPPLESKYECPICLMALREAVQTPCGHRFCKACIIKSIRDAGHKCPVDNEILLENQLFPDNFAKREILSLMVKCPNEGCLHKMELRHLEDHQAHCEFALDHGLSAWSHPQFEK
Description: ALPHAScreen TRAF6-Ubc13 interaction assay. It counts as binding.
Conditions: not given
An excerpt:
In order to identify small molecules that specifically target the RZ1 domain of TRAF6 and thereby prevent its binding to Ubc13, the ALPHAScreen technology (PerkinElmer) was chosen to detect TRAF6WTStrepII-Ubc13FH interaction in High-Throughput-Screenings as well as Structure Activity Relationship (SAR) analysis.
For performance of an automated ALPHAScreen assay, all following components were pre-diluted in ALPHAScreen buffer (1×PBS, 0.5% BSA, 0.01% Tween-20). First, the TRAF6 protein (end concentration 100 nM, 30 μL volume) was added to 384-well-opti-plates involving the MultiFlo dispensing system (BioTek) followed by transfer of the compounds via the Sciclone G3 transfer station (PerkinElmer). After addition of Ubc13FH (end concentration 75 nM, 10 μL volume) with the MultiFlo system and incubation for one hour at room temperature, both beads (Strep-Tactin Alpha Donor beads and Nickel-Chelate acceptor beads; end concentrations 4 μg each, 10 μL volume each) were mixed and added using the MultiFlo system in subdued light. Read-out of the plates occurred after another hour of incubation at room temperature. Statistical parameters including the coefficient of variation, Z′ factor and signal window were calculated to determine the quality of the HTS campaign. To evaluate the efficacy of the compounds, ALPHAScreen units of compound-treated samples were referred to DMSO control treated samples. Thereby, the TRAF6D57K mutant served as the control for minimum signal and was included on every plate of the screening. Compounds that inhibited TRAF6WTStrepII-Ubc13FH by more than 25% were considered as actives. After elimination of ALPHAScreen frequent hitter compounds and His-tag frequent hitters (Schorpp, K., I. Rothenaigner, E. Salmina, et al., Identification of Small-Molecule Frequent Hitters from AlphaScreen High-Throughput Screens. J Biomol Screen, 2014. 19(5): p. 715-26), 178 compounds were defined as primary hits and were subsequently tested in five-point serial dilution assays (2.5-40 μM) in TRAF6WTStrepII-Ubc13FH ALPHAScreen experiments. Only compounds with dose-dependent effects on TRAF6WTStrepII-Ubc13FH (n=27) were taken for further research. For analog testing, all compounds were analyzed in ten-point titration (0.2-100 μM) in TRAF6WTStrepII-Ubc13FH ALPHAScreen experiments. In parallel, the compounds were tested in the ALPHAScreen TruHits Kit (PerkinElmer) to rule out unspecific interference with the ALPHAScreen technology.
Turning to `Cc1nn(-c2ccc3nnc(C)n3n2)c(C)c1CCC(=O)N1CCN(c2ccccc2)CC1` [Example C25, 3-(3,5-dimethyl-1-(3-methyl-[1,2,4]triazolo[4,3-b]pyridazin-6-yl)-1H-pyrazol-4-yl)-1-(4-phenylpiperazin-1-yl)propan-1-one], the “inhibition of TRAF6-Ubc13 interaction in ALPHAScreen (in words)” value is “promising hit; also recorded: best results in in-vitro and cell-based assays”.

Still in this assay, the particulars now being: TRAF6 100 nM, Ubc13FH 75 nM; class symbols; read-out: IC50 Alphascreen (inhibition of TRAF6-UBC13 interaction).
Turning to `Cc1cc(CN2CCN(C(=O)CCc3c(C)nn(-c4ccc5nnc(C)n5n4)c3C)CC2)ccc1[N+](=O)[O-]` [Example 122], the IC50 was not above 3 µM. Consider `Cc1nn(-c2ccc3nnc(C)n3n2)c(C)c1CCC(=O)N1CCN(Cc2ccc(O)c(Cl)c2)CC1` [Example 123], for which the IC50 was not above 3 µM. Consider `Cc1nn(-c2ccc3nnc(C(F)(F)F)n3n2)c(C)c1CCC(=O)N1CCN(Cc2cc(F)cc(-c3nnn[nH]3)c2)CC1` [Example 178], for which the IC50 is not above 3 µM. For the compound `Cc1nn(-c2ccc3nnc(C)n3n2)c(C)c1CCC(=O)N1CCN(Cc2ccc(F)c(F)c2)CC1` [Example 140], the IC50 is not above 30 µM. Same read-out and setting: for `Cc1nn(-c2ccc3nnc(C)n3n2)c(C)c1CCC(=O)N1CCN(Cc2ccc(NS(C)(=O)=O)cc2)CC1` [Example 117] the value was not above 10 µM; for `Cc1nn(-c2ccc3nnc(C)n3n2)c(C)c1CCC(=O)N1CCN(Cc2cccc(Br)c2)CC1` [Example 163], not above 3 µM.

With `Cc1nn(-c2ccc3nnc(C(F)(F)F)n3n2)c(C)c1CCC(=O)N1CCN(Cc2cccc(C#N)c2C)CC1` [Example 186], the IC50 is not above 10 µM. As to `Cc1nn(-c2ccc3nnc(C)n3n2)c(C)c1CCC(=O)N1CCN(Cc2ccc(I)cc2)CC1` [Example 111], the IC50 is not above 30 µM. Still for that read-out and setting: as for `Cc1nn(-c2ccc3nnc(C)n3n2)c(C)c1CCC(=O)N1CCN(Cc2cccc3ccccc23)CC1` [Example 141], the figure is not above 30 µM; as for `Cc1nn(-c2ccc3nnc(C)n3n2)c(C)c1CCC(=O)N1CCN(Cc2cccc(NS(C)(=O)=O)c2)CC1` [Example 156], not above 10 µM.

As to `Cc1cccc(CN2CCN(C(=O)CCc3c(C)nn(-c4ccc5nnc(C)n5n4)c3C)CC2)c1` [Example 133], the IC50 is not above 10 µM. `Cc1nn(-c2ccc3nnc(C)n3n2)c(C)c1CCC(=O)N1CCN(Cc2cccc(C(F)(F)F)c2)CC1` [Example 159]: the IC50 is not above 3 µM. For `Cc1nn(-c2ccc3nnc(C)n3n2)c(C)c1CCC(=O)N1CCN(Cc2ccc(-c3nnn[nH]3)cc2F)CC1` [Example 169], the IC50 was not above 10 µM.

For the compound `Cc1nn(-c2ccc3nnc(C)n3n2)c(C)c1CCC(=O)N1CCN(Cc2ccc([N+](=O)[O-])cc2)CC1` [Example 115], the IC50 was not above 3 µM. Take `CC(=O)Nc1ccc(CN2CCN(C(=O)CCc3c(C)nn(-c4ccc5nnc(C)n5n4)c3C)CC2)cc1` [Example 112]: the IC50 is not above 10 µM. On to `CNC(=O)c1cccc(CN2CCN(C(=O)CCc3c(C)nn(-c4ccc5nnc(C)n5n4)c3C)CC2)c1` [Example 101], for which the IC50 is not above 30 µM. The same measure, in the same setting: as for `Cc1nn(-c2ccc3nnc(C)n3n2)c(C)c1CCC(=O)N1CCN(Cc2cccc(S(C)(=O)=O)c2)CC1` [Example 155], the figure is not above 3 µM. For `Cc1cc(C(=O)O)ccc1CN1CCN(C(=O)CCc2c(C)nn(-c3ccc4nnc(C)n4n3)c2C)CC1` [Example 121], the IC50 is not above 3 µM. As to `Cc1nn(-c2ccc3nnc(C)n3n2)c(C)c1CCC(=O)N1CCN(Cc2cc(C#N)ccc2Cl)CC1` [Example 191], the IC50 is not above 10 µM. Same read-out and setting: as for `Cc1nn(-c2ccc3nnc(C(F)(F)F)n3n2)c(C)c1CCC(=O)N1CCN(Cc2cccc(C#N)c2Cl)CC1` [Example 187], the figure is not above 10 µM; as for `Cc1nn(-c2ccc3nnc(C)n3n2)c(C)c1CCC(=O)N1CCN(Cc2cccc(-c3nnn[nH]3)c2Cl)CC1` [Example 175], not above 3 µM. Turning to `Cc1nn(-c2ccc3nnc(C)n3c2)c(C)c1CCC(=O)N1CCN(Cc2ccccc2)CC1` [Example 105], the inhibition at 100 µM is not below 30%.

On to `Cc1nn(-c2ccc3nnc(C)n3n2)c(C)c1CCC(=O)N1CCN(Cc2cccc(C(N)=O)c2)CC1` [Example 151], for which the IC50 was not above 10 µM. Consider `Cc1nn(-c2ccc3nnc(C)n3n2)c(C)c1CCC(=O)N1CCC(C)(Cc2ccccc2)C1` (centres unmarked) [Example 119], for which the IC50 was not above 3 µM. As for `Cc1nn(-c2ccc3nnc(C)n3n2)c(C)c1CCC(=O)N1CCN(Cc2ccc(C#N)cc2F)CC1` [Example 182], the IC50 is not above 10 µM. Take `Cc1nn(-c2ccc3nnc(C)n3n2)c(C)c1CCC(=O)N1CCN(Cc2ccc(S(N)(=O)=O)cc2)CC1` [Example 130]: the IC50 is not above 3 µM. Regarding `Cc1nn(-c2ccc3nnc(C)n3c2)c(C)c1CCC(=O)N1CCC(Cc2ccccc2)C1` (centres unmarked) [Example 107], the inhibition at 100 µM is not below 30%.

In the case of `Cc1nn(-c2ccc3nnc(C)n3n2)c(C)c1CCC(=O)N1CCN(Cc2cccc3ncccc23)CC1` [Example 138], the IC50 was not above 10 µM. As for `CC(=O)c1cccc(CN2CCN(C(=O)CCc3c(C)nn(-c4ccc5nnc(C)n5n4)c3C)CC2)c1` [Example 125], the IC50 is not above 3 µM. Consider `Cc1nn(-c2ccc3nnc(C)n3n2)c(C)c1CCC(=O)N1CCN(Cc2cccc(-c3nnn[nH]3)c2C)CC1` [Example 179], for which the IC50 is not above 3 µM.

As for `Cc1nn(-c2ccc3nnc(C(F)(F)F)n3n2)c(C)c1CCC(=O)N1CCN(Cc2ccc(-c3nnn[nH]3)cc2Cl)CC1` [Example 174], the IC50 was not above 3 µM. The same measure, in the same setting: for `Cc1nn(-c2ccc3nnc(C(F)(F)F)n3n2)c(C)c1CCC(=O)N1CCN(Cc2cc(-c3nnn[nH]3)ccc2Cl)CC1` [Example 172] the value was not above 3 µM.

On to `Cc1nn(-c2ccc3nnc(C)n3n2)c(C)c1CCC(=O)N1CCN(Cc2cc(F)cc(-c3nnn[nH]3)c2)CC1` [Example 177], for which the IC50 is not above 3 µM. `Cc1nn(-c2ccc3nnc(C)n3n2)c(C)c1CCC(=O)NC1CCN(c2ccccc2)CC1` [Example 167]: the inhibition at 100 µM is not below 30%. Take `Cc1nn(-c2ccc3nnc(C)n3n2)c(C)c1CCC(=O)N1CCN(Cc2cccc(F)c2)CC1` [Example 158]: the half-inhibitory concentration (IC50) was not above 10 µM. For `Cc1nn(-c2ccc3nnc(C(F)(F)F)n3n2)c(C)c1CCC(=O)N1CCN(Cc2ccc(-c3nnn[nH]3)cc2F)CC1` [Example 170], the IC50 is not above 3 µM. The same measure, in the same setting: for `Cc1nn(-c2ccc3nnc(C)n3n2)c(C)c1CCC(=O)N1CCN(Cc2cccc(C#N)c2)CC1` [Example 126] the value was not above 3 µM; for `Cc1nn(-c2ccc3nnc(C)n3n2)c(C)c1CCC(=O)N1CCN(Cc2ccc(-c3nnn[nH]3)cc2Cl)CC1` [Example 173], not above 3 µM; for `Cc1nn(-c2ccc3nnc(C)n3n2)c(C)c1CCC(=O)N1CCN(Cc2ccc(S(C)(=O)=O)cc2)CC1` [Example 116], not above 3 µM. Take `Cc1nn(-c2ccc3nnc(C)n3n2)c(C)c1CCC(=O)N1CCN(Cc2cccc(C#N)c2C)CC1` [Example 185]: the IC50 is not above 3 µM. On the same count and under the same terms, as for `Cc1nn(-c2ccc3nnc(C)n3n2)c(C)c1CCC(=O)N1CCN(Cc2ccc3cc[nH]c3c2)CC1` [Example 165], the figure is not above 10 µM.

On to `Cc1nn(-c2ccc3nnc(C)n3n2)c(C)c1CCC(=O)N1CCN(Cc2cccc3cccnc23)CC1` [Example 153], for which the IC50 was not above 3 µM.

With `Cc1nn(-c2ccc3nnc(C)n3n2)c(C)c1CCC(=O)N1CCN(Cc2cccc(C#N)c2Cl)CC1` [Example 184], the half-inhibitory concentration (IC50) is not above 10 µM. For the compound `Cc1nn(-c2ccc3nnc(C(F)(F)F)n3n2)c(C)c1CCC(=O)N1CCN(Cc2cc(C#N)ccc2Cl)CC1` [Example 183], the IC50 is not above 3 µM. `Cc1nn(-c2ccc3nnc(C)n3n2)c(C)c1CCC(=O)N1CCN(Cc2ccc(Cl)cc2)CC1` [Example 143]: the IC50 was not above 30 µM. Take `Cc1nn(-c2ccc3nnc(C)n3n2)c(C)c1CCC(=O)N1CCN(Cc2ccc(Cl)c(Cl)c2)CC1` [Example 135]: the IC50 was not above 3 µM. Turning to `Cc1nn(-c2ccc3nnc(C)n3n2)c(C)c1CCC(=O)N1CCN(Cc2ccc(C(F)(F)F)c(F)c2)CC1` [Example 136], the IC50 is not above 10 µM. For the compound `Cc1nn(-c2ccc3nnc(C)n3n2)c(C)c1CCC(=O)N1CCN(Cc2ccccc2C#N)CC1` [Example 127], the IC50 is not above 10 µM. On the same count and under the same terms, as for `Cc1nn(-c2ccc3nnc(C)n3n2)c(C)c1CCC(=O)N1CCC(Oc2ccccc2)CC1` [Example 168], the figure is not above 10 µM.

What is called IC50 is the midpoint of a concentration-inhibition curve. A word on the inhibition: it is the percentage by which the read-out fell short of the control.
